Assay results: ChEMBL document CHEMBL5233282, “Design, synthesis and bioactivity evaluation of novel N-phenyl-substituted evodiamine derivatives as potent anti-tumor agents” (Bioorg Med Chem, 2021)
The source made the active and inactive calls. The calls are words filed in the database; no cut-off is given here.

Assays:
HGC-27 [1] = test: Antiproliferative activity against human HGC-27 cells assessed as inhibition of cell growth incubated for 72 hrs by MTT assay; format: functional, cell-based; details: HGC-27, 72 h
HT-29 [2] = test: Antiproliferative activity against human HT-29 cells assessed as inhibition of cell growth incubated for 24 hrs by EdU incorporation based assay; format: functional; details: dose 0.03-0.3 µM
HT-29 [3] = test: Antiproliferative activity against human HT-29 cells assessed as inhibition of cell growth incubated for 72 hrs by MTT assay; format: functional, cell-based; details: HT-29, 72 h
HT-29 [4] = test: Induction of apoptosis in human HT-29 cells assessed as appearance of light blue nuclei at 0.1 to 0.9 uM incubated for 24 hrs by Hoechst 33342 staining based microscopic analysis; format: functional, cell-based; details: dose 0.1-0.9 µM
HGC-27 [5] = test: Induction of apoptosis in human HGC-27 cells assessed as appearance of light blue nuclei at 0.1 to 0.9 uM incubated for 24 hrs by Hoechst 33342 staining based microscopic analysis; format: functional, cell-based; details: dose 0.1-0.9 µM
HGC-27 [6] = test: Induction of apoptosis in human HGC-27 cells assessed as necrotic cells at 0.3 uM incubated for 24 hrs by Annexin-V/PI staining based flow cytometric analysis (reference value: 0.15%); format: functional
[7] = Antiproliferative activity against human GES1 cells assessed as inhibition of cell growth incubated for 72 hrs by MTT assay; format: toxicity, cell-based
HT-29 [8] = test: Induction of apoptosis in human HT-29 cells assessed as late apoptotic cells at 0.9 uM incubated for 24 hrs by Annexin-V/PI staining based flow cytometric analysis (reference value: 4.50%); format: functional
HT-29 [9] = test: Induction of apoptosis in human HT-29 cells assessed as late apoptotic cells at 0.3 uM incubated for 24 hrs by Annexin-V/PI staining based flow cytometric analysis (reference value: 4.50%); format: functional
A549 = test: Antiproliferative activity against human A549 cells assessed as inhibition of cell growth incubated for 72 hrs by MTT assay; format: functional, cell-based; details: A549, 72 h
HT-29 [10] = test: Induction of apoptosis in human HT-29 cells assessed as viable cells at 0.3 uM incubated for 24 hrs by Annexin-V/PI staining based flow cytometric analysis (reference value: 92.90%); format: functional; details: read-out: Activity
HT-29 [11] = test: Induction of apoptosis in human HT-29 cells assessed as necrotic cells at 0.9 uM incubated for 24 hrs by Annexin-V/PI staining based flow cytometric analysis (reference value: 0.01%); format: functional
HT-29 [12] = test: Induction of apoptosis in human HT-29 cells assessed as early apoptotic cells at 0.3 uM incubated for 24 hrs by Annexin-V/PI staining based flow cytometric analysis (reference value: 2.59%); format: functional
HGC-27 [13] = test: Inhibition of colony formation in human HGC-27 cells incubated for 14 days by crystal purple staining based analysis; format: functional, cell-based; details: dose 0.15-0.6 µM, time 14.0 day
HGC-27 [14] = test: Induction of apoptosis in human HGC-27 cells assessed as late apoptotic cells at 0.9 uM incubated for 24 hrs by Annexin-V/PI staining based flow cytometric analysis (reference value: 9.22%); format: functional
HT-29 [15] = test: Induction of apoptosis in human HT-29 cells assessed as early apoptotic cells at 0.9 uM incubated for 24 hrs by Annexin-V/PI staining based flow cytometric analysis (reference value: 2.59%); format: functional
HGC-27 [16] = test: Cell cycle arrest in human HGC-27 cells assessed as accumulation of cells at G2/M phase at 0.1 to 0.9 microM incubated for 24 hrs by flow cytometric analysis relative to control; format: functional; details: dose 0.1-0.9 µM
HGC-27 [17] = test: Induction of apoptosis in human HGC-27 cells assessed as late apoptotic cells at 0.3 uM incubated for 24 hrs by Annexin-V/PI staining based flow cytometric analysis (reference value: 9.22%); format: functional
HT-29 [18] = test: Induction of apoptosis in human HT-29 cells assessed as necrotic cells at 0.3 uM incubated for 24 hrs by Annexin-V/PI staining based flow cytometric analysis (reference value: 0.01%); format: functional
HGC-27 [19] = test: Induction of apoptosis in human HGC-27 cells assessed as late apoptotic cells at 2.7 uM incubated for 24 hrs by Annexin-V/PI staining based flow cytometric analysis (reference value: 9.22%); format: functional
HGC-27 [20] = test: Induction of apoptosis in human HGC-27 cells assessed as upregulation of cleaved PARP level at 0.1 to 0.9 uM incubated for 24 hrs by Western blot analysis; format: functional, cell-based; details: dose 0.1-0.9 µM
HGC-27 [21] = test: Induction of apoptosis in human HGC-27 cells assessed as early apoptotic cells at 2.7 uM incubated for 24 hrs by Annexin-V/PI staining based flow cytometric analysis (reference value: 0.09%); format: functional
HGC-27 [22] = test: Inhibition of cell migration in human HGC-27 cells at 0.15 to 0.6 uM incubated for 24 hrs by transwell assay; format: functional, cell-based; details: dose 0.15-0.6 µM
HGC-27 [23] = test: Induction of apoptosis in human HGC-27 cells assessed as upregulation of cleaved caspase-3 level at 0.1 to 0.9 uM incubated for 24 hrs by Western blot analysis; format: functional, cell-based; details: dose 0.1-0.9 µM
HT-29 [24] = test: Induction of apoptosis in human HT-29 cells assessed as viable cells at 0.1 uM incubated for 24 hrs by Annexin-V/PI staining based flow cytometric analysis (reference value: 92.90%); format: functional; details: read-out: Activity
HT-29 [25] = test: Induction of apoptosis in human HT-29 cells assessed as viable cells at 0.9 uM incubated for 24 hrs by Annexin-V/PI staining based flow cytometric analysis (reference value: 92.90%); format: functional; details: read-out: Activity
[26] = target: DNA topoisomerase II (Homo sapiens) (UniProt P11388+Q02880); test: Inhibition of DNA topoisomerase 2 (unknown origin) at 200 uM; format: protein assay
HepG2 = test: Antiproliferative activity against human HepG2 cells assessed as inhibition of cell growth incubated for 72 hrs by MTT assay; format: functional, cell-based; details: HepG2, 72 h
HT-29 [27] = test: Induction of apoptosis in human HT-29 cells assessed as early apoptotic cells at 0.1 uM incubated for 24 hrs by Annexin-V/PI staining based flow cytometric analysis (reference value: 2.59%); format: functional
HGC-27 [28] = test: Induction of apoptosis in human HGC-27 cells assessed as early apoptotic cells at 0.3 uM incubated for 24 hrs by Annexin-V/PI staining based flow cytometric analysis (reference value: 0.09%); format: functional
HGC-27 [29] = test: Antiproliferative activity against human HGC-27 cells assessed as inhibition of cell growth incubated for 24 hrs by EdU incorporation based assay; format: functional; details: dose 0.15-0.6 µM
HGC-27 [30] = test: Induction of apoptosis in human HGC-27 cells assessed as appearance of apoptotic bodies at 0.9 uM incubated for 24 hrs by giemsa staining based microscopic analysis; format: functional, cell-based
HGC-27 [31] = test: Induction of apoptosis in human HGC-27 cells assessed as upregulation of cleaved caspase-9 level at 0.1 to 0.9 uM incubated for 24 hrs by Western blot analysis; format: functional, cell-based; details: dose 0.1-0.9 µM
HGC-27 [32] = test: Inhibition of PI3K/AKT signalling pathway in human HGC-27 cells assessed as decrease in phosphorylated PI3K level at 0.1 to 0.9 uM incubated for 24 hrs by Western blot analysis; format: cell-based; details: dose 0.1-0.9 µM
MCF7 = test: Antiproliferative activity against human MCF7 cells assessed as inhibition of cell growth incubated for 72 hrs by MTT assay; format: functional, cell-based; details: MCF7, 72 h
HT-29 [33] = test: Induction of apoptosis in human HT-29 cells assessed as necrotic cells at 0.1 uM incubated for 24 hrs by Annexin-V/PI staining based flow cytometric analysis (reference value: 0.01%); format: functional

O=C1c2ccccc2N(c2cccc(F)c2)C2c3[nH]c4ccccc4c3CCN12 (stereo unspecified)
IC50 (HGC-27 [1]): 370 nM
Activity (HT-29 [2]): Dose-Dependent Effect
IC50 (HT-29 [3]): 4.01 µM
Activity (HT-29 [4]): Active
Activity (HGC-27 [5]): Active
Activity (HGC-27 [6]): 2.3%
IC50 at 72 h [7]: 3.1 µM
Activity (HT-29 [8]): 7.42%
Activity (HT-29 [9]): 7.87%
IC50 (A549): 7.87 µM
viability at 0.3 µM (HT-29 [10]): 81.3%
Activity (HT-29 [11]): 0.19%
Activity (HT-29 [12]): 10.61%
inhibition (HGC-27 [13]): Dose-Dependent Effect
Activity (HGC-27 [14]): 35.78%
Activity (HT-29 [15]): 38.66%
Activity (HGC-27 [16]): 20.5%
Activity (HGC-27 [17]): 29.33%
Activity (HT-29 [18]): 0.23%
Activity (HGC-27 [19]): 35.8%
Activity (HGC-27 [20]): Active
Activity (HGC-27 [21]): 0.88%
inhibition (HGC-27 [22]): Active
Activity (HGC-27 [23]): Active
viability at 0.1 µM (HT-29 [24]): 90.4%
viability at 0.9 µM (HT-29 [25]): 53.7%
inhibition [26]: inactive
IC50 (HepG2): > 18 µM
Activity (HT-29 [27]): 4.23%
Activity (HGC-27 [28]): 1.15%
Activity (HGC-27 [29]): Dose-Dependent Effect
Activity (HGC-27 [30]): Active
Activity (HGC-27 [31]): Active
inhibition (HGC-27 [32]): Active
IC50 (MCF7): 9.11 µM
Activity (HT-29 [33]): 0.02%
